Laboratory results as given in patent US20260098027A1, “PHARMACEUTICALLY ACCEPTABLE SALT AND CRYSTAL FORM OF TETRAHYDRONAPHTHALENE DERIVATIVE, AND PREPARATION METHOD” (JIANGSU HENGRUI PHARMACEUTICALS CO., LTD., priority 2022, published 2026).
Counter-ions that a name gives are not always drawn. One block for each molecule: values may come before it.

Columns and labels:
[1] = tested on: MCF-7 (Y537S) human breast cancer cells xenograft tumors; assay: Efficacy against MCF-7 (Y537S) xenograft tumors in BEIGE SCID mice; format: in vivo; settings: for Mean tumor volume D0: D0 (day of grouping, before dosing)
Description: To evaluate the inhibitory effect of compound I on the growth of xenograft tumors of MCF-7 (Y537S) human breast cancer cells in BEIGE SCID mice.
Compound I. A 2% Tween 80+98% PEG-400 solution was used.
Test animals: female BEIGE SCID mice, purchased from Beijing Vital River Laboratory Animal Technology Co., Ltd. (certificate No. SCXK (Beijing) 2016-0006), weighing about 19 g on purchase.
Housing conditions: 5 animals/cage, a 12/12-hour light/dark cycle, a constant temperature of 23±1° C. with humidity at 50 to 60%, ad libitum access to food and water.
After acclimatization, BEIGE SCID mice were grouped as follows:
MCF-7 (Y537S) cells in the logarithmic growth phase were subcutaneously inoculated into the right flank of female BEIGE SCID mice at 1.0×10^7/mouse/200 μL (containing 100 μL of matrigel). After 18 days, when the tumor volume of tumor-bearing mice reached about 170 mm^3, the mice were randomly divided into 4 groups of 8 according to tumor volume and body weight: a vehicle control group, a compound I 5 mpk group, a compound I 15 mpk group, and a compound I 45 mpk group. The day of grouping was set as Do, and intragastric administration was started and performed once a day for 28 days. The 28th day post-dose was set as D28 (Table 1). The tumor volume of tumor-bearing mice was measured with a vernier caliper twice a week.
All data were plotted and statistically analyzed using Excel and GraphPad Prism 8 software.
The calculation formula for tumor volume (V) was: V=½×a×b2, where a and b represent length and width, respectively.
Relative tumor proliferation rate T/C (%)=(T−T0)/(C−C0)×100(%), where T and C represent the tumor volumes of the treatment groups and the control group at the end of the experiment; T0 and C0 represent the tumor volumes at the beginning of the experiment.
Tumor growth inhibition rate TGI (%)=1−T/C (%). If TGI (%) exceeds 100%, its specific value will not be shown; instead, it will be represented as >100%. Tumor regression (%)=[(T0−T)/T0]×100(%).

[2] = tested on: MCF7 cells; assay: Inhibitory effect on MCF7 cell proliferation (CellTiter-Glo); format: cell-based; settings: Homo sapiens, 144 h, 6 days incubation, luminescence cell viability readout
Description: MCF7 cells (TCHu74, National Collection of Authenticated Cell Cultures) were cultured in an MEM (GE Healthcare, SH30024.01) complete culture medium containing 10% fetal bovine serum. On day 1 of the experiment, MCF7 cells were seeded into a 96-well plate at a density of 3,000 cells/well using an MEM culture medium containing 2% fetal bovine serum, with each well containing 135 μL of cell suspension. The plate was incubated overnight in a 37° C., 5% CO2 cell incubator. The next day, the test compound, at different concentrations in the culture medium, was added at 15 μL/well. The final concentrations of the compound were 9 concentration points obtained by 4-fold serial dilution from 1000 nM. A blank control containing 0.5% DMSO was set up. The plate was incubated in a 37° C., 5% CO2 cell incubator for 6 days. On day 8, the 96-well cell culture plate was taken out, and CellTiter-Glo® Luminescent Cell Viability Assay (Promega, G7573) was added at 75 µL/well. After the plate was left at room temperature for 10 min, luminescence signal values were measured using a multilabel microplate reader (PerkinElmer, VICTOR 3).

[3] = DVS (dynamic vapor sorption) hygroscopicity test; format: physicochemical
Description: DVS refers to dynamic vapor sorption: Surface Measurement Systems instrinsic was adopted; the humidity started at 50%, the humidity range of the investigation was 0%-95%, and the humidity was increased in increments of 10%; the criterion was that each gradient mass change dM/dT is ≤0.002%, TMAX 360 min, two cycles.

[4] = Long-term/accelerated stability; format: physicochemical
Description: Hydrochloride crystal form I was left to stand under 25° C./60% RH and 40° C./75% RH conditions to test its stability.

[5] = Influencing factor stability (light, high temperature, high humidity); format: physicochemical
Description: Samples of hydrochloride crystal form I were spread out in open vessels and subjected to 1-month stability tests under light exposure (4500 Lux), high temperature (40° C. and 60° C.), and high humidity (RH 75% and RH 92.5%) conditions.

Number of remaining animals/group ([1]; 5 mpk i.g. qd/28 d): 8/8
Number of remaining animals/group ([1]; 15 mpk i.g. qd/28 d): 8/8
Number of remaining animals/group ([1]; 45 mpk i.g. qd/28 d): 8/8
IC50 [2]: 0.59 nM
SMILES: CC(C)C[C@H]1CCc2cc(O)ccc2[C@H]1c1ccc(N2CCC(CN3CCN(c4ccc5c(c4)CN([C@H]4CCC(=O)NC4=O)C5=O)CC3)CC2)cc1 [Compound I, (S)-3-(5-(4-((1-(4-((1R,2R)-6-hydroxy-2-isobutyl-1,2,3,4-tetrahydronaphthalen-1-yl)phenyl)piperidin-4-yl)methyl)piperazin-1-yl)-1-oxoisoindolin-2-yl)piperidine-2,6-dione]
Mean tumor volume D0 ([1]; 5 mpk i.g. qd/28 d): 170.2 mm^3
Mean tumor volume D28 ([1]; 5 mpk i.g. qd/28 d): 305.0 mm^3
TGI (%) D28 ([1]; 5 mpk i.g. qd/28 d): 72%
Mean tumor volume D0 ([1]; 15 mpk i.g. qd/28 d): 168.2 mm^3
Mean tumor volume D28 ([1]; 15 mpk i.g. qd/28 d): 219.7 mm^3
TGI (%) D28 ([1]; 15 mpk i.g. qd/28 d): 89%
Mean tumor volume D0 ([1]; 45 mpk i.g. qd/28 d): 168.6 mm^3
Mean tumor volume D28 ([1]; 45 mpk i.g. qd/28 d): 192.0 mm^3
TGI (%) D28 ([1]; 45 mpk i.g. qd/28 d): 95%

hygroscopic weight gain ([3]; accelerated experimental conditions, 70% RH): about 7.3%
hygroscopic weight gain ([3]; extreme conditions, 90% RH): about 8.9%
hygroscopic weight gain ([3]; normal storage conditions, 25° C. and 60% RH): about 6.3%
crystal form after the DVS tests ([3]; sample re-identified after DVS): its crystal form did not change
Purity % ([4]; 25° C./60% RH, 7 days): 99.0%
Purity % ([4]; 25° C./60% RH, 14 days): 99.0%
Purity % ([4]; 25° C./60% RH, 30 days): 99.0%
Purity % ([4]; 25° C./60% RH, 60 days): 99.0%
Purity % ([4]; 40° C./75% RH, 7 days): 99.0%
Purity % ([4]; 40° C./75% RH, 14 days): 99.0%
Purity % ([4]; 40° C./75% RH, 30 days): 99.0%
Purity % ([4]; 40° C./75% RH, 60 days): 98.9%
Purity % ([4]; Initial, 0 days): 99.0%
physical and chemical stabilities (conclusion) ([4]; standing under long-term accelerated conditions for 2 months): good physical and chemical stabilities
Purity % ([5]; 40° C., 7 days, open vessel): 98.6%
Purity % ([5]; 40° C., 14 days, open vessel): 98.4%
Purity % ([5]; 40° C., 30 days, open vessel): 97.9%
Purity % ([5]; 60° C., 7 days, open vessel): 98.2%
Purity % ([5]; 60° C., 14 days, open vessel): 97.6%
Purity % ([5]; 60° C., 30 days, open vessel): 96.8%
Purity % ([5]; 75% RH, 7 days, open vessel): 99.0%
Purity % ([5]; 75% RH, 14 days, open vessel): 98.9%
Purity % ([5]; 75% RH, 30 days, open vessel): 99.0%
Purity % ([5]; 93% RH, 7 days, open vessel): 99.0%
Purity % ([5]; 93% RH, 14 days, open vessel): 98.9%
Purity % ([5]; 93% RH, 30 days, open vessel): 98.7%
Purity % ([5]; 4500 Lux, 7 days, open vessel): 98.6%
Purity % ([5]; 4500 Lux, 14 days, open vessel): 98.1%
Purity % ([5]; 4500 Lux, 30 days, open vessel): 97.8%
Purity % ([5]; Initial, 0 days): 99.0%
physical and chemical stabilities (conclusion) ([5]; standing 1 month under conditions other than the high temperature and light exposure conditions): good physical and chemical stabilities
SMILES: CC(C)C[C@H]1CCc2cc(O)ccc2[C@H]1c1ccc(N2CCC(CN3CCN(c4ccc5c(c4)CN([C@H]4CCC(=O)NC4=O)C5=O)CC3)CC2)cc1 [hydrochloride crystal form I, (S)-3-(5-(4-((1-(4-((1R,2R)-6-hydroxy-2-isobutyl-1,2,3,4-tetrahydronaphthalen-1-yl)phenyl)piperidin-4-yl)methyl)piperazin-1-yl)-1-oxoisoindolin-2-yl)piperidine-2,6-dione]
